Format in all cases: functional, cell-based
Test [1] has as its system MCF7. Nature of the test: Cytotoxicity against human MCF7 cells at 10 to 100 uM after 48 hrs by MTT assay. (In general: Tetrazolium assays rely on reduction of a dye to a coloured formazan, in cell work by metabolically active cells.)
Test [2] has as its system A549. Nature of the test: Cytotoxicity against human A549 cells at 10 to 100 uM after 48 hrs by MTT assay.
For a further test, the system named is HCT-116. Nature of the test: Cytotoxicity against human HCT116 cells at 10 to 100 uM after 48 hrs by MTT assay.
Test [3] concerns HT-29. Description: Cytotoxicity against human HT-29 cells at 10 to 100 uM after 48 hrs by MTT assay.
In test [4] the test system is MCF7. Description: Cytotoxicity against human MCF7 cells after 48 hrs by MTT assay.
The subject of test [5] is A549. Nature of the test: Cytotoxicity against human A549 cells after 48 hrs by MTT assay.
For test [6], the system named is HT-29. Nature of the test: Cytotoxicity against human HT-29 cells after 48 hrs by MTT assay.

Results on eight molecules are retold here after ChEMBL document CHEMBL1955786, “New antitumor compounds from Carya cathayensis” (Bioorg Med Chem Lett, 2012).

Calls of active or inactive are those of the source. The rule behind the calls is not given here.

`COc1cc(O)cc(C=O)c1`: the outcome in the test with MCF7 [1], in the test on A549 [2], with HCT-116 and in the test with HT-29 [3] was Active.

Take `O=Cc1ccc(O)cc1`: the result in the test with MCF7 [1], in the test on A549 [2], in the test with HCT-116 and in the test with HT-29 [3] was Active.

`OC[C@@H]1[C@@H](Cc2ccc(O)cc2)CO[C@H]1c1ccc(O)cc1`: the result in the test with MCF7 [1], with A549 [2] and in the test with HT-29 [3] was Active. Besides, the Activity result in the test with MCF7 [4], in the test with A549 [5] and in the test on HT-29 [6] was “Dose-dependent effect” each time. The result with HCT-116 was inactive.

Take `O=C/C=C\c1ccc(O)cc1`: the outcome in the test with MCF7 [1], with A549 [2], with HCT-116 and with HT-29 [3] was Active.

With `COc1cc([C@H]2Oc3c(OC)cc(/C=C/C=O)cc3[C@@H]2CO)ccc1O`, the outcome in the test with MCF7 [1], with A549 [2], with HCT-116 and in the test with HT-29 [3] was Active. Besides, the Activity result in the test with MCF7 [4], in the test on A549 [5] and with HT-29 [6] was “Dose-dependent effect” in each case.

Consider `COc1cc(/C=C\C=O)ccc1O`, for which the result in the test with MCF7 [1], with A549 [2], in the test with HCT-116 and with HT-29 [3] was Active. The Activity entry in the test with MCF7 [4], with A549 [5] and with HT-29 [6] was “Dose-dependent effect” in each case.

Consider `COc1cc(C(=O)C(CO)c2ccc(O)c(OC)c2)ccc1O` (centres undefined), for which the outcome in the test with MCF7 [1], in the test with A549 [2], in the test on HCT-116 and in the test with HT-29 [3] was Active.

Take `COc1cc([C@@H]2Oc3c(OC)cc(/C=C/C=O)cc3[C@H]2CO)ccc1O`: the result in the test on MCF7 [1], with A549 [2], in the test on HCT-116 and in the test on HT-29 [3] was Active. Also, the Activity entry with MCF7 [4], with A549 [5] and with HT-29 [6] was “Dose-dependent effect” each time.
